Data set [1] can be described thus: Shear bonding strength of the lap joint. Particulars: cross-sectional area 2.54 cm×2.54 cm, n=4. The protocol:
The catecholic zwitterions were inspired by interfacial proteins (mfp-3 and -5) that function as adhesive primers, but not as bulk adhesives. To determine whether Z-Cat-C10 is limited to surface binding or develops measurable bulk cohesion (thickness […]), bulk rupture tests were done using a peeling-by-bending test to better mimic the role that interfacial proteins play in resisting plaque detachment as well as lap-shear bonding test. Lap joints were prepared by gluing two steel plates (SS304) immersed in water using the lower dense coacervate (˜10 μl) (FIGS. 24A-24H). The lap joint (cross-sectional area=2.54 cm×2.54 cm) prepared in artificial seawater or periodate solution, respectively, held a load up to 3 N underwater. […] After 12 h ambient drying, the joint prepared in 1 M periodate solution held much higher load, 11 N: Standard three point bending peel strength of the lap joint (cross-sectional area=2.54 cm×1.27 cm) was measured under ambient dry conditions after drying 12 h. […] Shear bonding strength of the lap joint (cross-sectional area=2.54 cm×2.54 cm) was also measured, 1.1 MPa (standard deviation=0.3, n=4)—similar to Dopa-functionalized polypeptide prepared under ambient dry conditions, 0.9 MPa. […]

Data set [2] can be described thus: Standard three point bending peel test. Particulars: ambient dry, n=4. The protocol: Samples were prepared as described above in “Lap Joint Bending Peel Test” underwater, i.e., aqueous periodate solution, then dried 12 h and 24 h, respectively, in ambient condition. In this standard three point bending peel test, the cross section area was 2.54 cm×1.27 cm.
The standard three point bending peel test (FIG. 24F) was conducted with a Bionix 200 tensile tester (MTS Systems) in ambient conditions. All tests were conducted with a test speed of 5 mm min-1.

Data set [3] is described as follows: Critical aggregation concentration by Wilhelmy plate tensiometry. The class given is physicochemical. Particulars: DI water. The protocol:
Aqueous colloidal dispersions of each homolog were prepared in deoxygenated deionized (DI) water. The critical aggregation concentration (CAC) was determined from the solution surface tension of varying homolog concentrations in deionized (DI) water (e.g., see the red line of Z-Cat-C10 in FIG. 2B) by Wilhelmy plate tensiometry and has been described elsewhere. Use of the CAC instead of CMC here is a hedge to accommodate the uncertainty about whether micelles or other soluble aggregates were forming.
Aqueous colloidal dispersions of each homolog were prepared in deoxygenated deionized (DI) water. The critical aggregation concentration (CAC) was determined from the solution surface tension of varying homolog concentrations in deionized (DI) water (e.g., see the line of Z-Cat-C10 in FIG. 2B) by Wilhelmy plate tensiometry and has been described elsewhere. Use of the CAC instead of CMC here is a hedge to accommodate the uncertainty about whether micelles or other soluble aggregates were forming.

Data set [4] is described as follows: OFET characterization (saturation hole mobility). Particulars: Au source and drain electrodes. An excerpt: The OFETs were fabricated onto nano-grooved SiO2 substrates prepared by rubbing n^++Si (500 μm)/SiO2 (300 nm) substrate (International Wafer Services Co.) with a diamond lapping disc with particle sizes of 100 nm (Allied High Tech Products Inc.) as described in detail in the previous reports. The Ni (5 nm)/Au (50 nm) source and drain electrodes were patterned on the SiO2 dielectrics through a conventional photolithography process. For OFETs with Ni source and drain electrodes, an additional Ni (10 nm) layer was deposited on top of the pre-deposited Au electrodes. All metal electrodes were deposited by electron beam evaporation at 7×10^−7 Torr. Then, the substrates were sonicated in acetone and isopropanol for cleaning, and were kept in an oven at >100° C. for overnight. After ultraviolet/ozone treatment of pre-cleaned nano-grooved SiO2 substrates for 10 min, the substrates were passivated with the Z-Cat-Ben or Z-Cat-Ben-F SAM by dropping SAM water solution (5 mM) onto the substrates for ˜1 min. The substrates were subsequently rinsed with deionized water for ˜1 min, and were kept in a low vacuum for 10 min to remove residual water. The PCDTPT (1-Material Inc.) was then cast from a chlorobenzene solution (0.25 mg mL^−1) through the sandwich casting in a nitrogen-filled glove box. The devices were then cured at 200° C. for 1 min prior to measurements, and were tested using a probe station (Signatone Co.) in a nitrogen-filled glove box. Data were collected by a Keithley 4200 system.
The field-effect mobilities in the saturation regime were extracted using the following equation, IDS=(W/2L)Cμ(VGS−VT)^2 (7) where, W is the channel width, L is the channel length, C is the gate dielectric capacitance per unit area, μ is the carrier mobility in the saturation regime, IDS is the drain-source current, and VGS is the gate-source voltage. Channel width/length is 1000/200 μm for the devices used in this study. Transistor Characteristics of OFETs with Z-Cat-Ben and Z-Cat-Ben-F: Contact Angle Measurements: […]

A short description of data set [5]: Contact angle measurements on SAM-modified substrates. The format is physicochemical. Particulars: SAM-modified nano-grooved SiO2. On the procedure: The nano-grooved SiO2 substrates passivated with Z-Cat-Ben or Z-Cat-Ben-F SAMs were prepared with the same procedure described above. For the reference substrate, the pre-cleaned and ultraviolet/ozone-treated (for 10 min) nano-grooved SiO2 substrate was passivated with n-decyltrichlorosilane (Gelest Inc.) in toluene solution (1% by volume) at 80° C. for 20 min in ambient air. Then, the substrate was subsequently sonicated in toluene and rinsed with additional toluene several times. Anhydrous chlorobenzene (50 μL) was used as a droplet dropping on the substrates. All contact angle images were taken at the direction perpendicular to nano-grooves in the substrates using Dataphysics OCA 15EC goniometer.

As for `CN(C)CCOP(=O)(O)OCCCc1ccc(O)c(O)c1` [Z-Cat-C10], the “shear bonding strength of the lap joint” value in data set [1] worked out at 1.1 MPa. Besides, the “three point bending peel strength” value in data set [2] is 20.5 N cm^−1. In data set [3], the “critical aggregation concentration (CAC), rank” value is on record as “lowest CAC among the homologs”.

For `C[N+](C)(CCCc1ccccc1)CCOP(=O)([O-])OCCCc1ccc(O)c(O)c1` [Z-Cat-Ben], the “saturation hole mobility μ” value in data set [4] is listed as 22±4 cm^2 V^−1 s^−1. Further, the “contact angle θ of chlorobenzene droplet” value in data set [5] is on record as “≈ 1 °”.

These data come from patent US12415939B2, “Nano-adhesive and surface primer compound and use thereof” (The Regents of the University of California, priority 2015, dated 2025).
